Values quoted from earlier work, collected in publication PMC4584145 (Antiviral chemistry & chemotherapy, 2011).

Tests used:
[1] = system: N-HR of HIV-1 gp41; settings: ELISA; N-HR containing amino acid positions 18 to 73
[2] = system: 5-helix complex (three N-HRs and two C-HRs)

Row | Substance | binding to the N-HR [1] | interaction with artificial 5-helix complex [2]
1 | C34: representative C-HR-derived peptide that inhibits HIV-1 fusion to host cells | binds strongly | 
2 | Enfuvirtide [T20] | binds weakly | much weaker than that between C34 and the complex
